From PubChem BioAssay (NCI)
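Cultured in 96-well plates, cells were exposed to test compound for 48 hours across five concentrations. The concentration for 50% growth inhibition is given as GI50. TGI: total growth inhibition.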

What was measured:
Test in all cases: NCI-60 cell line screen, 48 h
RPMI-8226 leukemia = test system: RPMI-8226 leukemia
BT-549 breast = test system: BT-549 breast
MDA-MB-231 breast = test system: MDA-MB-231 breast
HCC-2998 colon = test system: HCC-2998 colon
NCI-H522 lung = test system: NCI-H522 lung
IGROV1 ovarian = test system: IGROV1 ovarian
SNB-19 CNS = test system: SNB-19 CNS
MALME-3M melanoma = test system: MALME-3M melanoma
SN12C renal = test system: SN12C renal
MCF7 breast = test system: MCF7 breast
MDA-MB-435 = test system: MDA-MB-435
U251 CNS = test system: U251 CNS
NCI-H23 lung = test system: NCI-H23 lung
CCRF-CEM leukemia = test system: CCRF-CEM leukemia
OVCAR-4 ovarian = test system: OVCAR-4 ovarian
COLO 205 colon = test system: COLO 205 colon
SR leukemia = test system: SR leukemia
SK-MEL-5 melanoma = test system: SK-MEL-5 melanoma
HCT-116 colon = test system: HCT-116 colon
OVCAR-3 ovarian = test system: OVCAR-3 ovarian
ACHN renal = test system: ACHN renal
OVCAR-5 ovarian = test system: OVCAR-5 ovarian
T-47D breast = test system: T-47D breast
A498 renal = test system: A498 renal
HL-60(TB) leukemia = test system: HL-60(TB) leukemia
SNB-75 CNS = test system: SNB-75 CNS
SF-295 CNS = test system: SF-295 CNS
HOP-62 NSCLC = test system: HOP-62 NSCLC
NCI-H226 lung = test system: NCI-H226 lung
MOLT-4 leukemia = test system: MOLT-4 leukemia
SK-MEL-28 melanoma = test system: SK-MEL-28 melanoma
UACC-257 melanoma = test system: UACC-257 melanoma
OVCAR-8 ovarian = test system: OVCAR-8 ovarian
KM12 colon = test system: KM12 colon
SW-620 colon = test system: SW-620 colon
NCI-H460 lung = test system: NCI-H460 lung
HCT-15 colon = test system: HCT-15 colon
HT29 colon = test system: HT29 colon
A549 NSCLC = test system: A549 NSCLC
RXF 393 renal = test system: RXF 393 renal
HS 578T breast = test system: HS 578T breast
NCI/ADR-RES ovarian = test system: NCI/ADR-RES ovarian
EKVX NSCLC = test system: EKVX NSCLC
PC-3 prostate = test system: PC-3 prostate
SK-MEL-2 melanoma = test system: SK-MEL-2 melanoma
SF-268 CNS = test system: SF-268 CNS
UACC-62 melanoma = test system: UACC-62 melanoma
CAKI-1 renal = test system: CAKI-1 renal
786-0 renal = test system: 786-0 renal
DU-145 prostate = test system: DU-145 prostate
K-562 leukemia = test system: K-562 leukemia
TK-10 renal = test system: TK-10 renal
SK-OV-3 ovarian = test system: SK-OV-3 ovarian
LOX IMVI melanoma = test system: LOX IMVI melanoma
SF-539 CNS = test system: SF-539 CNS
UO-31 renal = test system: UO-31 renal
HOP-92 NSCLC = test system: HOP-92 NSCLC

O=c1cc(NCC(O)CN2CCOCC2)n(Cc2ccccc2)c(=O)n1Cc1ccccc1 (centres undefined)
GI50 (RPMI-8226 leukemia): 28.3 µM
TGI (RPMI-8226 leukemia): 78 µM
GI50 (BT-549 breast): 45.9 µM
TGI (BT-549 breast): > 100 µM
GI50 (MDA-MB-231 breast): 19.2 µM
TGI (MDA-MB-231 breast): 53.6 µM
GI50 (HCC-2998 colon): 34.9 µM
TGI (HCC-2998 colon): > 100 µM
GI50 (NCI-H522 lung): 28.1 µM
TGI (NCI-H522 lung): 72 µM
GI50 (IGROV1 ovarian): 33.5 µM
TGI (IGROV1 ovarian): 86.3 µM
GI50 (SNB-19 CNS): > 100 µM
TGI (SNB-19 CNS): > 100 µM
GI50 (MALME-3M melanoma): 26.9 µM
TGI (MALME-3M melanoma): 77.3 µM
GI50 (SN12C renal): 42.3 µM
TGI (SN12C renal): > 100 µM
GI50 (MCF7 breast): 41.8 µM
TGI (MCF7 breast): > 100 µM
GI50 (MDA-MB-435): 59.7 µM
TGI (MDA-MB-435): > 100 µM
GI50 (U251 CNS): 47.6 µM
TGI (U251 CNS): > 100 µM
GI50 (NCI-H23 lung): 42.5 µM
TGI (NCI-H23 lung): > 100 µM
GI50 (CCRF-CEM leukemia): 36.9 µM
TGI (CCRF-CEM leukemia): > 100 µM
GI50 (OVCAR-4 ovarian): 39.9 µM
TGI (OVCAR-4 ovarian): > 100 µM
GI50 (COLO 205 colon): 23.5 µM
TGI (COLO 205 colon): 58.6 µM
GI50 (SR leukemia): 19.8 µM
TGI (SR leukemia): 49.3 µM
GI50 (SK-MEL-5 melanoma): 19.2 µM
TGI (SK-MEL-5 melanoma): 35 µM
GI50 (HCT-116 colon): 34.8 µM
TGI (HCT-116 colon): > 100 µM
GI50 (OVCAR-3 ovarian): 56.2 µM
TGI (OVCAR-3 ovarian): > 100 µM
GI50 (ACHN renal): 49.8 µM
TGI (ACHN renal): > 100 µM
GI50 (OVCAR-5 ovarian): > 100 µM
TGI (OVCAR-5 ovarian): > 100 µM
GI50 (T-47D breast): 61 µM
TGI (T-47D breast): > 100 µM
GI50 (A498 renal): 49.3 µM
TGI (A498 renal): > 100 µM
GI50 (HL-60(TB) leukemia): 12.6 µM
TGI (HL-60(TB) leukemia): > 100 µM
GI50 (SNB-75 CNS): 31.8 µM
TGI (SNB-75 CNS): 91.3 µM
GI50 (SF-295 CNS): 41.2 µM
TGI (SF-295 CNS): > 100 µM
GI50 (HOP-62 NSCLC): 34.2 µM
TGI (HOP-62 NSCLC): > 100 µM
GI50 (NCI-H226 lung): 56.8 µM
TGI (NCI-H226 lung): > 100 µM
GI50 (MOLT-4 leukemia): 27.8 µM
TGI (MOLT-4 leukemia): > 100 µM
GI50 (SK-MEL-28 melanoma): 28.7 µM
TGI (SK-MEL-28 melanoma): 70.3 µM
GI50 (UACC-257 melanoma): 30.2 µM
TGI (UACC-257 melanoma): 85.8 µM
GI50 (OVCAR-8 ovarian): 72.8 µM
TGI (OVCAR-8 ovarian): > 100 µM
GI50 (KM12 colon): 36.1 µM
TGI (KM12 colon): > 100 µM
GI50 (SW-620 colon): 62.5 µM
TGI (SW-620 colon): > 100 µM
GI50 (NCI-H460 lung): 44.2 µM
TGI (NCI-H460 lung): > 100 µM
GI50 (HCT-15 colon): 45.5 µM
TGI (HCT-15 colon): > 100 µM
GI50 (HT29 colon): 18.8 µM
TGI (HT29 colon): 41.6 µM
GI50 (A549 NSCLC): 53.5 µM
TGI (A549 NSCLC): > 100 µM
GI50 (RXF 393 renal): 30.5 µM
TGI (RXF 393 renal): 92.5 µM
GI50 (HS 578T breast): 37.8 µM
TGI (HS 578T breast): > 100 µM
GI50 (NCI/ADR-RES ovarian): 65.7 µM
TGI (NCI/ADR-RES ovarian): > 100 µM
GI50 (EKVX NSCLC): 70.6 µM
TGI (EKVX NSCLC): > 100 µM
GI50 (PC-3 prostate): 33.7 µM
TGI (PC-3 prostate): > 100 µM
GI50 (SK-MEL-2 melanoma): > 100 µM
TGI (SK-MEL-2 melanoma): > 100 µM
GI50 (SF-268 CNS): 63.6 µM
TGI (SF-268 CNS): > 100 µM
GI50 (UACC-62 melanoma): 22.7 µM
TGI (UACC-62 melanoma): 63.3 µM
GI50 (CAKI-1 renal): 85.9 µM
TGI (CAKI-1 renal): > 100 µM
GI50 (786-0 renal): 41.4 µM
TGI (786-0 renal): > 100 µM
GI50 (DU-145 prostate): 51.7 µM
TGI (DU-145 prostate): > 100 µM
GI50 (K-562 leukemia): 30.8 µM
TGI (K-562 leukemia): > 100 µM
GI50 (TK-10 renal): > 100 µM
TGI (TK-10 renal): > 100 µM
GI50 (SK-OV-3 ovarian): > 100 µM
TGI (SK-OV-3 ovarian): > 100 µM
GI50 (LOX IMVI melanoma): 37.8 µM
TGI (LOX IMVI melanoma): > 100 µM
GI50 (SF-539 CNS): 60.2 µM
TGI (SF-539 CNS): > 100 µM
GI50 (UO-31 renal): 27.3 µM
TGI (UO-31 renal): 85.8 µM
GI50 (HOP-92 NSCLC): 21.7 µM
TGI (HOP-92 NSCLC): 77.1 µM
